IC50 data for 25 compounds are collected here from patent publication US9321776B2, “Isochromene derivatives as phoshoinositide 3-kinases inhibitors” (CHIESI FARMACEUTICI S.p.A., priority 2013, dated 2016).

One test deals with T1, PI3Kγ (Homo sapiens, UniProt P48736).
T1 construct: purchased Millipore Ltd (Billerica, Mass.)
Description: PI3K enzyme inhibitory activity in the cell free assay (ADP-Glo Kinase Assay). The format is biochemical. The settings on record: human recombinant PI3Kγ, ATP 30 μM; read-out: PI3K gamma inhibition.

Another test addresses T2, PI3Kδ (Homo sapiens, UniProt O00329).
T2 construct: purchased Millipore Ltd (Billerica, Mass.)
T2 sequence (O00329 1-1044): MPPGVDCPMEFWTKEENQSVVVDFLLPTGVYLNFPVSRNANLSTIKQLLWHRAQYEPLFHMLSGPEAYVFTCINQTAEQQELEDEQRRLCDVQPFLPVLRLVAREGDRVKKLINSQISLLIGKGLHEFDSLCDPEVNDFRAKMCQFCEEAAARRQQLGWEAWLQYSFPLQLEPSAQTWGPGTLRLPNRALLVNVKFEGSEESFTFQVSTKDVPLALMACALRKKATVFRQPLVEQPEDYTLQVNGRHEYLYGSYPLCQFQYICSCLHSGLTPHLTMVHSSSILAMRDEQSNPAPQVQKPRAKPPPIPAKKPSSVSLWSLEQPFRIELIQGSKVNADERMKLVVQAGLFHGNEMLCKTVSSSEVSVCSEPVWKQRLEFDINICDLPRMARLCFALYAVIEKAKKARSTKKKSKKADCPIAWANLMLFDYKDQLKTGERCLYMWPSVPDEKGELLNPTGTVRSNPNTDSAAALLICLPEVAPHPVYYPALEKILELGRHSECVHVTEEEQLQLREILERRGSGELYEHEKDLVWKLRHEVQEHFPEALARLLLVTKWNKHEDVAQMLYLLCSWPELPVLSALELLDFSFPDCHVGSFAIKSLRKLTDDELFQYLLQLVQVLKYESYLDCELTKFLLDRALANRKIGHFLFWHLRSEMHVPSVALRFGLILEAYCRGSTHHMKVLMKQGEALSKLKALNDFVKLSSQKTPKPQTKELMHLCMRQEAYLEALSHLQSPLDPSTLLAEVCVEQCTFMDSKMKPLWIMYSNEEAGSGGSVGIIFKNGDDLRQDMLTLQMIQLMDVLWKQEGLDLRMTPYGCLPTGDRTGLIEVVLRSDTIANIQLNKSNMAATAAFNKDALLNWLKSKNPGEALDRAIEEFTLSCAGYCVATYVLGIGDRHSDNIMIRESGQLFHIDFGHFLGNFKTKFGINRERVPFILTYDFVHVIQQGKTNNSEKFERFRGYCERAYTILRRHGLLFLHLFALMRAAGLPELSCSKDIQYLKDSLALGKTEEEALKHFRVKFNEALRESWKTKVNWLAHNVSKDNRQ
Described as above. The format is biochemical. Conditions: human recombinant PI3Kδ, ATP 80 μM; read-out: PI3K delta inhibition.

Molecules are shown by their SMILES. Where a name gives a salt, the structure may show the parent alone.

T1 sequence (P48736 whole entry): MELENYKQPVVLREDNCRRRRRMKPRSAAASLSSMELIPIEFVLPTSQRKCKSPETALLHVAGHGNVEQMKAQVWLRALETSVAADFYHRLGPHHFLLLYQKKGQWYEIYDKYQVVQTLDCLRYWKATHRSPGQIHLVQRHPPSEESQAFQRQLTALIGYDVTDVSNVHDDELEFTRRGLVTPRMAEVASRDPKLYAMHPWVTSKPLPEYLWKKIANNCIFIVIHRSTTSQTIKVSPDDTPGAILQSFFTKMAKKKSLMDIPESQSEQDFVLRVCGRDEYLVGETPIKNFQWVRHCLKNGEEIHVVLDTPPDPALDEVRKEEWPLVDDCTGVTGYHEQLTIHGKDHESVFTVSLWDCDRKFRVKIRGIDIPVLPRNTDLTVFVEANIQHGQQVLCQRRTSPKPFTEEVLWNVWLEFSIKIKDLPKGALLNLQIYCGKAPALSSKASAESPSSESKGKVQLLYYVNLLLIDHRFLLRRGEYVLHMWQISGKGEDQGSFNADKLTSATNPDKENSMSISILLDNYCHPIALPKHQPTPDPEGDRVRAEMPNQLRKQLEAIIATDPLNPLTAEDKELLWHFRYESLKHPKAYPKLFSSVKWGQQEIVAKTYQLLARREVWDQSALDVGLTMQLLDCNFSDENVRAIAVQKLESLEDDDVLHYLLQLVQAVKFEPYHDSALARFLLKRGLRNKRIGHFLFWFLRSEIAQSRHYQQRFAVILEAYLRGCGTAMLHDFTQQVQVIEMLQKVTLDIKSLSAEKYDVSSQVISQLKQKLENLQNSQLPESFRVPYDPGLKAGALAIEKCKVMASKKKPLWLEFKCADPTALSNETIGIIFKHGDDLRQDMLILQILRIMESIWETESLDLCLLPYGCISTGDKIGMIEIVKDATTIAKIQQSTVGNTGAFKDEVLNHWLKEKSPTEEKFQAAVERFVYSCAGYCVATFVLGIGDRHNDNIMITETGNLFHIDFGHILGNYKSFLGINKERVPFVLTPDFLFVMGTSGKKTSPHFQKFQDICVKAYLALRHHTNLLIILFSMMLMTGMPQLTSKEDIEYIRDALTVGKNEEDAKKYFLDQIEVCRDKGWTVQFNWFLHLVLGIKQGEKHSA

For `CC(c1oc(=O)c2ccccc2c1C1=CCN(C)CC1)n1nc(-c2cc(O)cc(F)c2)c2c(N)ncnc21` (single isomer, unassigned) [Example 46b, 3-1-(4-amino-3-(3-fluoro-5-hydroxyphenyl)-1H-pyrazolo[3,4-d]pyrimidin-1-yl)ethyl)-4-(1-methyl-1,2,3,6-tetrahydropyridin-4-yl)-1H-isochromen-1-one hydrochloride], the IC50 at PI3Kγ was over 1 µM; on PI3Kδ, 0.01 to 1 µM.

With `CC(c1oc(=O)c2ccccc2c1-c1cccc(CN(C)C)c1)n1nc(-c2cc(O)cc(F)c2)c2c(N)ncnc21` (single isomer, unassigned) [Example 67b, 3-(1-(4-amino-3-(3-fluoro-5-hydroxyphenyl)-1H-pyrazolo[3,4-d]pyrimidin-1-yl)ethyl)-4-(3-((dimethylamino)methyl)phenyl)-1H-isochromen-1-one], the IC50 at PI3Kδ lay within 0.01 to 1 µM.

As for `CC(c1oc(=O)c2ccccc2c1-c1ccc(CN2CCCCC2)s1)n1nc(-c2cc(O)cc(F)c2)c2c(N)ncnc21` (single isomer, unassigned) [Example 68a, 3-(1-(4-amino-3-(3-fluoro-5-hydroxyphenyl)-1H-pyrazolo[3,4-d]pyrimidin-1-yl)ethyl)-4-(5-(piperidin-1-ylmethyl)thiophen-2-yl)-1H-isochromen-1-one hydrochloride single enantiomers], the IC50 at PI3Kδ is 0.01 to 1 µM.

For `CC(c1oc(=O)c2ccccc2c1-c1ccc(CN2CCN(CCO)CC2)s1)n1nc(-c2cc(O)cc(F)c2)c2c(N)ncnc21` (single isomer, unassigned) [Example 76a, 3-(1-(4-amino-3-(3-fluoro-5-hydroxyphenyl)-1H-pyrazolo[3,4-d]pyrimidin-1-yl)ethyl)-4-(5-((4-(2-hydroxyethyl)piperazin-1-yl)methyl)thiophen-2-yl)-1H-isochromen-1-one hydrochloride], at PI3Kδ, the IC50 is 0.01 to 1 µM.

For the compound `CC(c1oc(=O)c2ccccc2c1-c1ccc(CCCN(C)C)cc1)n1nc(-c2cc(O)cc(F)c2)c2c(N)ncnc21` (single isomer, unassigned) [Example 138a, 3-(1-(4-amino-3-(3-fluoro-5-hydroxyphenyl)-1H-pyrazolo[3,4-d]pyrimidin-1-yl)ethyl)-4-(4-(3-(dimethylamino)propyl)phenyl)-1H-isochromen-1-one single enantiomers], the IC50 on PI3Kδ was over 1 µM.

As for `CC(c1oc(=O)c2ccccc2c1-c1ccccc1)n1cnc2c(N)ncnc21` (stereo not drawn) [Example 5, 3-(1-(6-Amino-9H-1-purin-9-yl)ethyl)-4-phenyl-1H-isochromen-1-one], the IC50 at PI3Kγ and on PI3Kδ was 0.01 to 1 µM throughout.

`Cc1cccc(-c2c(C(C)n3cnc4c(N)ncnc43)oc(=O)c3ccccc23)c1` (stereo not drawn) [Example 6, 3-(1-(6-Amino-9H-purin-9-yl)ethyl)-4-m-tolyl-1H-isochromen-1-one]: the IC50 on PI3Kγ and at PI3Kδ was 0.01 to 1 µM each time.

For the compound `CC(c1oc(=O)c2ccccc2c1-c1cccc(F)c1)n1cnc2c(N)ncnc21` (stereo not drawn) [Example 7, 3-(1-(6-Amino-9H-purin-9-yl)ethyl)-4-(3-fluorophenyl)-1H-isochromen-1-one], the IC50 at PI3Kγ and on PI3Kδ was 0.01 to 1 µM in each case.

Consider `CC(c1oc(=O)c2ccccc2c1-c1cccc(N(C)C)c1)n1cnc2c(N)ncnc21` (stereo not drawn) [Example 8, 3-(1-(6-Amino-9H-purin-9-yl)ethyl)-4-(3-(dimethylamino)phenyl)-1H-isochromen-1-one], for which the IC50 on PI3Kγ and on PI3Kδ was 0.01 to 1 µM in each case.

Take `CC(c1oc(=O)c2ccccc2c1-c1cccc(S(=O)(=O)N2CCOCC2)c1)n1cnc2c(N)ncnc21` (stereo not drawn) [Example 9, 3-(1-(6-Amino-9H-purin-9-yl)ethyl)-4-(3-(morpholinosulfonyl)phenyl)-1H-isochromen-1-one]: the IC50 at PI3Kγ and on PI3Kδ was 0.01 to 1 µM throughout.

In the case of `O=c1oc(CSc2ncnc3[nH]cnc23)c(-c2ccccc2)c2ccccc12` [Example 10, 3-((9H-Purin-6-ylthio)methyl)-4-phenyl-1H-isochromen-1-one], the IC50 at PI3Kγ and at PI3Kδ was over 1 µM throughout.

`Cc1cccc(-c2c(C(C)Sc3ncnc4[nH]cnc34)oc(=O)c3ccccc23)c1` (stereo not drawn) [Example 13, 3-(1-(9H-Purin-6-ylthio)ethyl)-4-m-tolyl-1H-isochromen-1-one]: the figures for the IC50 on PI3Kγ and at PI3Kδ were over 1 µM and 0.01 to 1 µM, respectively.

Turning to `Cc1cc(-c2c(C(C)n3ncc4c(N)ncnc43)oc(=O)c3ccccc23)ccn1` (stereo not drawn) [Example 19, 3-(1-(4-Amino-1H-pyrazolo[3,4-d]pyrimidin-1-yl)ethyl)-4-(2-methylpyridin-4-yl)-1H-isochromen-1-one], at PI3Kδ, the IC50 lay in the range of 0.01 to 1 µM.

For the compound `CC(c1oc(=O)c2ccccc2c1Cc1ccccc1)n1ncc2c(N)ncnc21` (stereo not drawn) [Example 20, 3-(1-(4-Amino-1H-pyrazolo[3,4-d]pyrimidin-1-yl)ethyl)-4-benzyl-1H-isochromen-1-one], at PI3Kδ, the IC50 fell in the range of 0.01 to 1 µM.

For `CC(c1oc(=O)c2ccccc2c1-c1ccccc1)n1nc(-c2cnc(O)nc2)c2c(N)ncnc21` (stereo not drawn) [Example 56, 3-(1-(4-amino-3-(2-hydroxypyrimidin-5-yl)-1H-pyrazolo[3,4-d]pyrimidin-1-yl)ethyl)-4-phenyl-1H-isochromen-1-one], on PI3Kδ, the IC50 lay within 0.01 to 1 µM.

`CC(c1oc(=O)c2ccccc2c1-c1ccccc1)n1nc(-c2cncc(O)n2)c2c(N)ncnc21` (stereo not drawn) [Example 90, 3-(1-(4-amino-3-(6-hydroxypyrazin-2-yl)-1H-pyrazolo[3,4-d]pyrimidin-1-yl)ethyl)-4-phenyl-1H-isochromen-1-one]: the IC50 at PI3Kδ fell in the range of 0.01 to 1 µM.

Consider `CC(c1oc(=O)c2ccccc2c1-c1ccccc1)n1nc(-c2cc(F)cc(Cl)c2)c2c(N)ncnc21` (stereo not drawn) [Example 95, 3-(1-(4-amino-3-(3-chloro-5-fluorophenyl)-1H-pyrazolo[3,4-d]pyrimidin-1-yl)ethyl)-4-phenyl-1H-isochromen-1-one], for which the IC50 on PI3Kδ was over 1 µM.

Consider `CC(c1oc(=O)c2ccccc2c1-c1ccccc1)n1nc(-c2cncc(S(C)(=O)=O)c2)c2c(N)ncnc21` (stereo not drawn) [Example 96, 3-(1-(4-amino-3-(5-(methylsulfonyl)pyridin-3-yl)-1H-pyrazolo[3,4-d]pyrimidin-1-yl)ethyl)-4-phenyl-1H-isochromen-1-one], for which the IC50 on PI3Kδ lay in the range of 0.01 to 1 µM.

For the compound `CC(c1oc(=O)c2ccccc2c1-c1ccccc1)n1nc(-c2cnc(O)c(F)c2)c2c(N)ncnc21` (stereo not drawn) [Example 98, 3-(1-(4-amino-3-(5-fluoro-6-hydroxypyridin-3-yl)-1H-pyrazolo[3,4-d]pyrimidin-1-yl)ethyl)-4-phenyl-1H-isochromen-1-one], the IC50 at PI3Kδ fell in the range of 0.01 to 1 µM.

Consider `CC(c1oc(=O)c2ccccc2c1-c1ccccc1)n1nc(-c2cncc(C(F)(F)F)c2)c2c(N)ncnc21` (stereo not drawn) [Example 100, 3-(1-(4-amino-3-(5-(trifluoromethyl)pyridin-3-yl)-1H-pyrazolo[3,4-d]pyrimidin-1-yl)ethyl)-4-phenyl-1H-isochromen-1-one], for which the IC50 at PI3Kδ lay within 0.01 to 1 µM.

`CC(c1oc(=O)c2ccccc2c1-c1ccccc1)n1nc(-c2cc(O)cc(S(F)(F)(F)(F)F)c2)c2c(N)ncnc21` (stereo not drawn) [Example 101, 3-(1-(4-amino-3-(5-hydroxy-3-sulfurpentafluoride)-1H-pyrazolo[3,4-d]pyrimidin-1-yl)ethyl)-4-phenyl-1H-isochromen-1-one]: the IC50 at PI3Kδ was 0.01 to 1 µM.

Turning to `CC(c1oc(=O)c2ccccc2c1-c1ccccc1)n1nc(-c2cncc(C#N)c2)c2c(N)ncnc21` (stereo not drawn) [Example 102, 5-(4-amino-1-(1-(1-oxo-4-phenyl-1H-isochromen-3-yl)ethyl)-1H-pyrazolo[3,4-d]pyrimidin-3-yl)nicotinonitrile], the IC50 at PI3Kγ is 0.01 to 1 µM.

For the compound `CC(Nc1ncnc2sccc12)c1oc(=O)c2ccccc2c1-c1ccccc1` (stereo not drawn) [Example 108, 4-phenyl-3-(1-(thieno[2,3-d]pyrimidin-4-ylamino)ethyl)-1H-isochromen-1-one], on PI3Kδ, the IC50 fell in the range of 0.01 to 1 µM.

As to `CC(c1oc(=O)c2ccccc2c1-c1ccccc1)n1nc(-c2ccc3[nH]nc(N)c3c2)c2c(N)ncnc21` (stereo not drawn) [Example 113, 3-(1-(4-amino-3-(3-amino-1H-indazol-5-yl)-1H-pyrazolo[3,4-d]pyrimidin-1-yl)ethyl)-4-phenyl-1H-isochromen-1-one], the IC50 at PI3Kδ is 0.01 to 1 µM.

For the compound `CC(c1oc(=O)c2ccccc2c1-c1ccc(CN2CCNCC2)cc1)n1ncc2c(N)ncnc21` (stereo not drawn) [Example 127, 3-(1-(4-amino-1H-pyrazolo[3,4-d]pyrimidin-1-yl)ethyl)-4-(4-(piperazin-1-ylmethyl)phenyl)-1H-isochromen-1-one hydrochloride], on PI3Kδ, the IC50 is over 1 µM.
